Tests used:
Format in all cases: cell-based
Settings in all cases: 24–36 hours
[1] = tested on: NALM-6 human leukemia cells; assay: MTT cytotoxicity assay, NALM-6
Description: (§1) The cytotoxicity assay of various compounds against human tumor cell lines was performed using the MTT (3-[4,5-dimethylthiazol-2-yl]-2,5-diphenyl tetrazolium bromide) assay (Boehringer Mannheim Corp., Indianapolis, Ind.). Briefly, exponentially growing tumor cells were seeded into a 96-well plate at a density of 2.5×10^4 cells/well and incubated for 36 hours at 37° C. prior to drug exposure. On the day of treatment, culture medium was carefully aspirated from the wells and replaced with fresh medium containing the quinazoline compounds at concentrations ranging from 0.1 to 250 μM. Triplicate wells were used for each treatment.
(§2) Human cell lines were obtained from American Type Culture Collection (Rockville, Md.) and maintained as a continuous cell line in Dulbecco's modified Eagles' medium supplemented with 10% fetal bovine serum and antibiotics. Cells used in this study include human leukemia cells (NALM-6 and MOLT-3), human breast cancer cells ([…]), human prostate cancer cells (PC3), and human brain tumor cells (U373).
(§3) The cells were incubated with the various compounds for 24–36 hours at 37° C. in a humidified 5% CO2 atmosphere. To each well, 10 μl of MTT (0.5 mg/ml final concentration) was added and the plates were incubated at 37° C. for 4 hours to allow MTT to form formazan crystals by reacting with metabolically active cells. The formazan crystals were solubilized overnight at 37° C. in a solution containing 10% SDS in 0.01 M HCl. The absorbance of each well was measured in a microplate reader (Labsystems) at 540 nm and a reference wavelength of 690 nm. To translate the OD 540 values into the number of live cells in each well, the OD 540 values were compared to those on standard OD 540—versus—cell number curves generated for each cell line. The percent survival was calculated using the formula:
(§4) [formula] The IC50 values were calculated by non-linear regression analysis. Detection of Apoptosis

[2] = tested on: BT20 human breast cancer cells; assay: MTT cytotoxicity assay, BT20
Description: as §1, §2, §3, §4

[3] = tested on: MOLT-3 human leukemia cells; assay: MTT cytotoxicity assay, MOLT-3
Description: as §1, §2, §3, §4

[4] = tested on: U373 human brain tumor cells; assay: MTT cytotoxicity assay, U373
Description: as §1, §2, §3, §4

[5] = Homo sapiens, NALM-6, Table 1, bromo substituted
[6] = Homo sapiens, BT-20, Table 1, bromo substituted
[7] = Homo sapiens, MOLT-3, Table 1, bromo substituted
[8] = Homo sapiens, NALM-6, Table 3, iodide substituted
[9] = Homo sapiens, NALM-6, Table 4, OH substituted
[10] = Homo sapiens, U373 MG, Table 3, iodide substituted
[11] = Homo sapiens, BT-20, Table 3, iodide substituted
[12] = Homo sapiens, BT-20, Table 4, OH substituted
[13] = Homo sapiens, MOLT-3, Table 3, iodide substituted
[14] = Homo sapiens, MOLT-3, Table 4, OH substituted
[15] = Homo sapiens, U373 MG, Table 4, OH substituted
[16] = Homo sapiens, NALM-6, Table 2, chloro substituted
[17] = Homo sapiens, BT-20, Table 2, chloro substituted
[18] = Homo sapiens, MOLT-3, Table 2, chloro substituted

COc1cc2ncnc(Nc3ccc(C)c(Br)c3)c2cc1OC [HI-P111, 4-(3′-Bromo-4′-methylphenyl)-amino-6,7-dimethoxyquinazoline]
IC50 [1, 5]: 201 µM
IC50 [2, 6]: > 250 µM
IC50 [3, 7]: > 250 µM

COc1cc2ncnc(Nc3c(Br)cccc3Br)c2cc1OC [HI-P262, 4-(2′,6′-Dibromophenyl)-amino-6,7-dimethoxyquinazoline]
IC50 [1, 5]: > 250 µM
IC50 [2, 6]: > 250 µM
IC50 [3, 7]: > 250 µM

COc1cc2ncnc(Nc3cc(I)c(O)c(I)c3)c2cc1OC [HI-P294, 4-(4′-Hydroxy-3,5-diiodophenyl)-amino-6,7-dimethoxy-quinazoline]
IC50 [1, 8]: > 250 µM
IC50 [1, 9]: > 250 µM
IC50 [4, 10]: > 250 µM
IC50 ([4]; Table 4, OH substituted): > 250 µM
IC50 [2, 11]: > 250 µM
IC50 [2, 12]: > 250 µM
IC50 [3, 13]: > 250 µM
IC50 [3, 14]: > 250 µM

COc1cc2ncnc(Nc3cc(Br)c(O)c(Br)c3)c2cc1OC [HI-P97, 4-(3′,5′-Dibromo-4′-hydroxylphenyl)-amino-6,7-dimethoxyquinazoline]
IC50 [1, 5]: > 250 µM
IC50 ([1]; Table 4, OH substituted): > 250 µM
IC50 [4, 15]: 161 µM
IC50 [2, 6]: 26.1 µM
IC50 [3, 7]: > 250 µM
IC50 ([3]; Table 4, OH substituted): > 250 µM

COc1cc2ncnc(Nc3ccc(O)cc3O)c2cc1OC [HI-P192, 4-(2′,4′-Dihydroxyphenyl)-amino-6,7-dimethoxyquinazoline]
IC50 [1, 9]: > 250 µM
IC50 [4, 15]: > 250 µM
IC50 [2, 12]: > 250 µM
IC50 [3, 14]: > 250 µM

COc1cc2ncnc(Nc3cc(Br)c(C)c(Br)c3)c2cc1OC [HI-P212, 4-(3′,5′-Dibromo-4′-methylphenyl)-amino-6,7-dimethoxyquinazoline]
IC50 [1, 5]: 52.7 µM
IC50 [2, 6]: > 250 µM
IC50 [3, 7]: 54.5 µM

COc1cc2ncnc(Nc3ccccc3)c2cc1OC [HI-P258]
IC50 [1, 5]: > 250 µM
IC50 [2, 6]: > 250 µM
IC50 [3, 7]: > 250 µM

COc1cc2ncnc(Nc3cc(Cl)c(O)c(Cl)c3)c2cc1OC [HI-P189, 4-(4′-Hydroxyl-3′,5′-dichlorophenyl)amino-6,7-dimethoxyquinazoline]
IC50 [1, 16]: > 250 µM
IC50 [1, 9]: > 250 µM
IC50 [4, 15]: > 250 µM
IC50 [2, 17]: > 250 µM
IC50 [2, 12]: > 250 µM
IC50 [3, 18]: > 250 µM
IC50 [3, 14]: > 250 µM

COc1cc2ncnc(Nc3c(Br)cc(Br)cc3Br)c2cc1OC [HI-P222, 4-(2′, 4′, 6′-Tribromophenyl)amino-6,7-dimethoxyquinazoline]
IC50 [1, 5]: 34 µM
IC50 [2, 6]: > 250 µM
IC50 [3, 7]: 48.3 µM

COc1cc2ncnc(C(=O)c3cccc(Br)c3)c2cc1OC [HI-P164, 4-(3′-Bromobenzoyl)-6,7-dimethoxyquinazoline]
IC50 [1, 5]: > 250 µM
IC50 [2, 6]: 39.2 µM
IC50 [3, 7]: > 250 µM

COc1cc2ncnc(Nc3c(Br)cc(C)cc3Br)c2cc1OC [HI-P241, 4-(2′,6′-Dibromo-4′-methylphenyl)-amino-6,7-dimethoxyquinazoline]
IC50 [1, 5]: > 250 µM
IC50 [2, 6]: > 250 µM
IC50 [3, 7]: > 250 µM

COc1cc2ncnc(Nc3ccc(Br)cc3C(=O)O)c2cc1OC [HI-P88, 4-(4′-Bromo-2′-caboxylphenyl)-amino-6,7-dimethoxyquinazoline]
IC50 [1, 5]: > 250 µM
IC50 [2, 6]: > 250 µM
IC50 [3, 7]: > 250 µM

COc1cc2ncnc(Nc3cccc(Cl)c3)c2cc1OC [HI-P87, 4-(3′-Chlorophenyl)-amino-6,7-dimethoxyquinazoline]
IC50 [1, 16]: 95.9 µM
IC50 [2, 17]: > 250 µM
IC50 [3, 18]: > 105 µM

COc1cc2ncnc(Nc3ccc(C)c(Br)c3Br)c2cc1OC [HI-P210, 4-(2′,3′-Dibromo-4′-methylphenyl)-amino-6,7-dimethoxyquinazoline]
IC50 [1, 5]: > 250 µM
IC50 [2, 6]: > 250 µM
IC50 [3, 7]: > 250 µM

COc1cc2ncnc(Nc3ccc(I)cc3)c2cc1OC [HI-P300, 4-(4′-Iodophenyl)-amino-6,7-dimethoxyquinazoline]
IC50 [1, 8]: 58 µM
IC50 [4, 10]: 116 µM
IC50 [2, 11]: 72.6 µM
IC50 [3, 13]: 59.1 µM

COc1cc2ncnc(Nc3ccccc3I)c2cc1OC [HI-P270, 4-(2′-Iodophenyl)-amino-6,7-dimethoxyquinazoline]
IC50 [1, 8]: > 250 µM
IC50 [4, 10]: > 250 µM
IC50 [2, 11]: > 250 µM
IC50 [3, 13]: 78.9 µM

COc1cc2ncnc(Nc3cc(Cl)ccc3O)c2cc1OC [HI-P93, 4-(3′-Chlooro-6′-hydroxylphenyl)amino-6,7-dimethoxyquinazoline]
IC50 [1, 16]: > 250 µM
IC50 [1, 9]: > 250 µM
IC50 [4, 15]: > 250 µM
IC50 [2, 17]: > 250 µM
IC50 [2, 12]: > 250 µM
IC50 [3, 18]: > 250 µM
IC50 [3, 14]: > 250 µM

COc1cc2ncnc(Nc3ccc(Br)cc3)c2cc1OC [HI-P260, 4-(4′-Bromophenyl)-amino-6,7-dimethoxyquinazoline]
IC50 [1, 5]: 32.4 µM
IC50 [2, 6]: 82.1 µM
IC50 [3, 7]: 51.3 µM

COc1cc2ncnc(Nc3ccc(O)c(Br)c3)c2cc1OC [HI-P154, 4-(3′-Bromo-4′-hydroxylphenyl)-amino-6,7-dimethoxyquinazoline]
IC50 [1, 5]: 12.5 µM
IC50 [2, 6]: > 250 µM
IC50 ([2]; Table 4, OH substituted): > 250 µM
IC50 [3, 7]: 9.1 µM

COc1cc2ncnc(Nc3ccccc3Br)c2cc1OC [HI-P261, 4-(2′-Bromophenyl)-amino-6,7-dimethoxyquinazoline]
IC50 [1, 5]: 72.6 µM
IC50 [2, 6]: 219 µM
IC50 [3, 7]: 148 µM

COc1cc2ncnc(Nc3ccc4c(c3)Cc3cc(Br)ccc3-4)c2cc1OC [HI-P160, 4-[(7′-Bromofluorene)-2′]-amino-6,7-dimethoxyquinazoline]
IC50 [1, 5]: 135 µM
IC50 [2, 6]: 25.5 µM
IC50 [3, 7]: 241 µM

COc1cc2ncnc(Nc3cccc(I)c3)c2cc1OC [HI-P271, 4-(3′-Iodophenyl)-amino-6,7-dimethoxyquinazoline]
IC50 [1, 8]: 6.1 µM
IC50 [4, 10]: > 250 µM
IC50 [2, 11]: > 250 µM
IC50 [3, 13]: 9.6 µM

COc1cc2ncnc(Nc3ccc(O)c(I)c3)c2cc1OC [HI-P299, 4-(4′-Hydroxy-3′-iodophenyl)-amino-6,7-dimethoxyquinazoline]
IC50 [1, 8]: 15.4 µM
IC50 [1, 9]: 66.3 µM
IC50 [4, 10]: > 250 µM
IC50 ([4]; Table 4, OH substituted): > 250 µM
IC50 [2, 11]: > 250 µM
IC50 [2, 12]: > 250 µM
IC50 [3, 13]: 60.1 µM
IC50 [3, 14]: 51.2 µM

COc1cc2ncnc(Nc3ccccc3Cl)c2cc1OC [HI-P268, 4-(2′-Chlorophenyl)-amino-6,7-dimethoxyquinazoline]
IC50 [1, 16]: 215 µM
IC50 [2, 17]: 122 µM
IC50 [3, 18]: 227 µM

COc1cc2ncnc(Nc3ccc(Cl)cc3)c2cc1OC [HI-P269, 4-(4′-Chlorophenyl)-amino-6,7-dimethoxyquinazoline]
IC50 [1, 16]: > 250 µM
IC50 [2, 17]: > 250 µM
IC50 [3, 18]: > 250 µM

COc1cc2ncnc(Nc3cc(Br)c(C)cc3Br)c2cc1OC [HI-P211, 4-(2′,5′-Dibromo-4′-methylphenyl)-amino-6,7-dimethoxyquinazoline]
IC50 [1, 5]: > 250 µM
IC50 [2, 6]: > 250 µM
IC50 [3, 7]: > 250 µM

COc1cc2ncnc(Nc3ccc(O)c(Cl)c3)c2cc1OC [HI-P197, 4-(3′-Chloro-4′-hydroxylphenyl)-amino-6,7-dimethoxyquinazoline]
IC50 [1, 16]: 39.3 µM
IC50 [1, 9]: 68.5 µM
IC50 [4, 15]: > 250 µM
IC50 [2, 17]: 137 µM
IC50 [2, 12]: 71.5 µM
IC50 [3, 18]: 68 µM
IC50 [3, 14]: 63.8 µM

COc1cc2ncnc(Nc3ccc(Br)cc3CO)c2cc1OC [HI-P190, 4-(4′-Bromo-6′-hydroxymethylphenyl)-amino-6,7-dimethoxyquinazoline]
IC50 [1, 5]: > 250 µM
IC50 [1, 9]: > 250 µM
IC50 [4, 15]: > 250 µM
IC50 [2, 6]: > 250 µM
IC50 [2, 12]: > 250 µM
IC50 [3, 7]: > 250 µM
IC50 [3, 14]: > 250 µM

COc1cc2ncnc(Nc3ccc(Cl)c4ccccc34)c2cc1OC [HI-P415, 4-(4′-Chloronaphthy-1′)-amino-6,7-dimethoxyquinazoline]
IC50 [1, 16]: 67.9 µM
IC50 [2, 17]: 38.1 µM
IC50 [3, 18]: > 250 µM

COc1cc2ncnc(Nc3cccc(Br)c3)c2cc1OC [HI-P79, 4-(3′-Bromophenyl)-amino-6,7-dimethoxyquinazoline]
IC50 [1, 5]: 142 µM
IC50 [2, 6]: 202 µM
IC50 [3, 7]: 195 µM

COc1cc2ncnc(Nc3ccc(C)cc3)c2cc1OC [HI-P234]
IC50 [1, 5]: > 250 µM
IC50 [2, 6]: > 250 µM
IC50 [3, 7]: > 250 µM

From US7038049B2, “Haloanilino quinazolines and therapeutic use thereof” (Parker Hughes Institute, priority 1999, dated 2006)
